Laboratory results reported in US11154544B2, “Amide derivatives as Nav1.7 and Nav1.8 blockers” (RaQualia Pharma Inc., priority 2017, dated 2021).
“And” between values parts separate entries of the source, which are not always exact repeats. Equal entries are not always repeated. Where two headings read alike, the source gives them in different places.

What was measured:
Format in all cases: cell-based
Nav1.7 [1] = target: T1, Nav1.7 (Homo sapiens (Human), UniProt Q15858); assay: EFS-FRET assay
Description: This screen is used to determine the effects of compounds on human Nav1.7 channels, utilizing electrical field stimulation (EFS) system in 96-well plate format on FDSS (Hamamatsu Photonics) platform. The change of membrane potential is monitored with FRET dye pair, DiSBAC2(3) and PTS 18.
CHO (Chinese hamster ovary) cells expressing human Nav1.7 channels are grown in T225 flasks, in a 5% CO2 humidified incubator to about 80% confluence. Media composition consists of HAM/F^.12 with Glutamax I, 10% FCS, 100 units/mL penicillin and 100 microgram/mL hygromycin.
Seed each cell lines (1×10^5 cells/well) into 96-well plates prior to experimentation.
Incubate at 37° C. in 5% CO2, for 24 hours.
Wash each well with assay buffer (140 mM NaCl, […], 10 mM D-Glucose, 2 mM CaCl2, 1 mM MgCl2, 10 mM HEPES, pH 7.4 adjusted with NaOH) twice.
Add 1st loading solution containing 10 microM PTS18 and 0.06% Pluronic F-127 in assay buffer.
Incubate the plate at rt in dark for 1 hour. • Remove 1st loading solution and add 2nd loading solution containing 12.5 microM DiSBAC2(3), 1.25 mM Xylene Fast Yellow and 0.0075% Pluronic F-127 in assay buffer. • Place the plate under the dark at rt for 25 minutes. • Add compound solutions into the assay plate. • Set the assay plate in FDSS and place an EFS device on the plate. • Measure EFS-induced fluorescent response by FDSS.
The data are analyzed and reported as normalized ratios of intensities measured at […]. The process of calculating these ratios is performed as follows:
This analysis is performed using a computerized specific program designed for
FDSS generated data. Fluorescence ratio values are plotted using XLfit to determine an IC50 value for each, compound.

human Nav1.8 channels = human Nav1.8 channels (Homo sapiens (Human), UniProt Q9Y5Y9); assay: FRET assay (FDSS)
Description: (§1) This screen is used to determine the effects of compounds on human Nav1.8, and human Nav1.5 channels, utilizing the cell imaging technology by Hamamatsu Photonics's Functional Drug Screening System (FDSS). The changes of membrane potential are monitored with fluorescent membrane potential dye pair, DiSBAC2(3) and CC2-DMPE, using FRET technology.
(§2) HEK293 cells expressing human Nav1.8 channels or human Nav1.5 channels are grown in T225 flasks, in a 5% CO2 humidified incubator to about 80% confluence. Media composition of HEK293 cells expressing human Nav1.8 channels consists of Dulbecco's Modified Eagle Medium (high glucose), 10% fetal calf serum (FCS), 100 units/mL Penicillin, 100 microgram/mL Streptomycin, 200 microgram/mL Zeocin and 500 microgram/mL Geneticine. HEK293 cells expressing human Nav1.5 channels are maintained in Dulbecco's Modified Eagle Medium (high glucose) supplemented with 10% fetal calf serum (FCS), 100 units/mL Penicillin, 100 microgram/mL Streptomycin and 500 microgram/mL Geneticine.
(§3) Seed each cell lines (1.5×10^4 cells/well) into 384-well plates prior to experimentation.
(§4) Incubate at 37° C. in 5% CO2 for 24 hours.
(§5) Wash each well with buffer #1 (140 mM NaCl, 4.5 mM KCl, 10 mM D-Glucose, 2 mM CaCl2, 1 mM MgCl2, 10 mM HEPES, pH 7.4 adjusted with. NaOH) twice using plate washer.
(§6) Add 1st loading solution containing 7.5 microM CC2-DMPE and 0.06% Pluronic F-127 in buffer #1.
(§7) Incubate the plate at rt in dark for 0.5 hours.
(§8) Wash each well with buffer #2 (160 mM Choline, 10 mM D-Glucose, 0.1 mM CaCl2, 1 mM MgCl2, 1.0 mM HEPES, pH 7.4 adjusted with KOH) twice using plate washer.
(§9) Add 2nd loading solution containing 75 microM DiSBAC2(3), 2.5 mM Xylene Fast Yellow, 10 microM Deltamethrin or 100 microM veratridine and 0.02% Pluronic F-127 in buffer #2.
(§10) Add compound solutions into the assay plate and leave the plate for 30 minutes under the dark at rt.
(§11) Monitor the fluorescent membrane potentials before and after the addition of buffer #2 by FDSS.
(§12) The data is analyzed and reported as normalized ratios of intensities measured in the 465 nm and 575 nm channels. The process of calculating these ratios is performed as follows: FR=(FI465Max/FI575Min)−(FI465B/FI575B) [Math.2]
(§13) “FI465B”=the mean of fluorescence intensity as baseline (before Na^+ ligand addition) at 465 nm
(§14) “FI575B”=the mean of fluorescence intensity as baseline (before Na^+ ligand addition) at 575 nm
(§15) “FI465Max”=maximum fluorescence intensity at 465 nm after Na^+ stimulation
(§16) “FI575Min”=minimum fluorescence intensity at 575 nm after Na^+ stimulation
(§17) This analysis is performed using a computerized specific program designed for FDSS generated data. Fluorescence ratio values are plotted using XLfit to determine an IC50 value for each compound.

Nav1.7 [2] = target: T1, Nav1.7; assay: Electrophysiology assay, whole cell patch clamp, affinity to inactivated state; conditions: read-out: activities (Ki) against Nav1.7
Description: Whole cell patch clamp recording is used to assess the efficacy or selectivity of Na channel blocker on human voltage gated sodium channels. Na channel expressing cells are dissociated by 0.05% Trypsine-EDTA or Accutase, and then seeded on cover glass for 2-24 hrs.
Manual patch clamp recordings are conducted at rt using the voltage-clamp amplifier (Axon Instruments or HEKA electronik). Electrodes are pulled with P-97 electrode puller (Sutter Instrument). The electrode resistances are 1-3 MOhm when intracellular solution is filled. Currents are lowpass filtered between 2-5 kHz and digitally sampled at 10 kHz.
The extracellular and intercellular solutions for human Nav1.7 and Nav1.5 consist of the following composition: […]
The normalized steady-state inactivation curve is constructed using 2 sec (for vehicle) or 60 sec (for drugs) conditioning pulse to different potentials followed immediately by the test pulse to −10 mV. […] The affinity of test compound to resting state of Na channels (Kresting or Kr) is assessed by depolarizing test pulse from a negative holding potential of −130 mV, where virtually all channels are in the resting state. Kr value is calculated by a conventional 1:1 binding model: Kresting(Kr)={[drug]Imax,drug/(Imax, control−Imax, drug)} [Math.8] • where Kresting (=Kr) is a dissociation constant for the resting state and [drug] is compound concentration. […]

human Nav1.5 channels = human Nav1.5 channels (Homo sapiens (Human), UniProt Q14524); assay: FRET assay (FDSS); conditions: HEK293 cells expressing human Nav1.5, read-out: activity (IC50) against Nav1.5
Description: as §1, §2, §3, §4, §5, §6, §7, §8, §9, §10, §11, §12, §13, §14, §15, §16, §17

[3] = EFS-FRET, CHO cells expressing human Nav1.7, read-out: IC50 against Nav1.7
[4] = Table 1, read-out: Nav1.7 activity (IC50)

human Nav1.8 channels, sequence (Q9Y5Y9 whole entry): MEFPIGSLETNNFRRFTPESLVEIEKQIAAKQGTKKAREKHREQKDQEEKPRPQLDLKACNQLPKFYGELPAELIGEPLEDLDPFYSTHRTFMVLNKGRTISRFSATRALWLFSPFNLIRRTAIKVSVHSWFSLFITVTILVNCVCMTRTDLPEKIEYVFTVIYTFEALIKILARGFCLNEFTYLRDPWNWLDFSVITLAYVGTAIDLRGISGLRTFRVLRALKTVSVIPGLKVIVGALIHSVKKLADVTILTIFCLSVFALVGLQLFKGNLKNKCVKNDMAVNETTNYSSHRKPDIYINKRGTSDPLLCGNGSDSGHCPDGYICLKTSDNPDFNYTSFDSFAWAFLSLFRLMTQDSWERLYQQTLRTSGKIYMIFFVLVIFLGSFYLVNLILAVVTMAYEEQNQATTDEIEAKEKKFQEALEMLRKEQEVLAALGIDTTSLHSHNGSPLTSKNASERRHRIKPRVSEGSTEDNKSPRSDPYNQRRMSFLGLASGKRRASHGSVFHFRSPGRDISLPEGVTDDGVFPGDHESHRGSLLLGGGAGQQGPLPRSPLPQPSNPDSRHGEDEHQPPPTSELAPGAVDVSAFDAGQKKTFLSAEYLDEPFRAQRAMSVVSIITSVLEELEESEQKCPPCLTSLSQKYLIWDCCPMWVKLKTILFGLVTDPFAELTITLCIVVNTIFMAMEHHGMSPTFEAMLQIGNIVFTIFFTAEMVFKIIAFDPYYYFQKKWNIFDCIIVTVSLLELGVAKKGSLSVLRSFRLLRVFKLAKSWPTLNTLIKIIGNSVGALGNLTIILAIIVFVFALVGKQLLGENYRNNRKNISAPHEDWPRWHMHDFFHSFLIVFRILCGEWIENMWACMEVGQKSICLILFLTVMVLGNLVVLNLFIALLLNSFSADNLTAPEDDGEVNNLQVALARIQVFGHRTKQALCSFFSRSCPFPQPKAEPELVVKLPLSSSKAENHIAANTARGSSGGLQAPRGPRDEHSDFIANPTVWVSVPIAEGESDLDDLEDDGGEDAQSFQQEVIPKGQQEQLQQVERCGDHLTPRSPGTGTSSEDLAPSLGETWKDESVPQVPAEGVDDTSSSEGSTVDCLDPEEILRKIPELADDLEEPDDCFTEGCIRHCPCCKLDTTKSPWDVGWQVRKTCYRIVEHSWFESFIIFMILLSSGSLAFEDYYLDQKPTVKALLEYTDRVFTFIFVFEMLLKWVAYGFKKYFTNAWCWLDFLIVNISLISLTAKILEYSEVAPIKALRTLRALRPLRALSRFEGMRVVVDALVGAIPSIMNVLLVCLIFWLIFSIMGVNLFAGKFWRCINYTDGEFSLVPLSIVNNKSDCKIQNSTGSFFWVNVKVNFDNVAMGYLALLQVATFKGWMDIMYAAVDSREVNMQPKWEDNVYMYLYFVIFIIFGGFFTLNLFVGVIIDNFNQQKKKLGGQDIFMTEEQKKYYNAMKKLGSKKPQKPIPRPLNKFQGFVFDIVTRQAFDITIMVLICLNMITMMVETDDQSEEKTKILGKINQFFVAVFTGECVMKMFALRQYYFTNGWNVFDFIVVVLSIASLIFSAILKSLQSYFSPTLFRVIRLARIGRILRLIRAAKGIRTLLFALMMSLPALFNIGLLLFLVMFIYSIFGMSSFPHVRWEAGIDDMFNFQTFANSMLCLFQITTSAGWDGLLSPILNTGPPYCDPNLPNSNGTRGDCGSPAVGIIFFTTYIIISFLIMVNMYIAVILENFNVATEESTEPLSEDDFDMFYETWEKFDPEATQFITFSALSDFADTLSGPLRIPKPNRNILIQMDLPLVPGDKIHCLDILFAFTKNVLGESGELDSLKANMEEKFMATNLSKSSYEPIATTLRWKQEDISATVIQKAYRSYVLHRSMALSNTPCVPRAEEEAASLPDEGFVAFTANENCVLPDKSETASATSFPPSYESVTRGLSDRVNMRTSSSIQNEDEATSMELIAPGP
T1 sequence (Q15858 whole entry): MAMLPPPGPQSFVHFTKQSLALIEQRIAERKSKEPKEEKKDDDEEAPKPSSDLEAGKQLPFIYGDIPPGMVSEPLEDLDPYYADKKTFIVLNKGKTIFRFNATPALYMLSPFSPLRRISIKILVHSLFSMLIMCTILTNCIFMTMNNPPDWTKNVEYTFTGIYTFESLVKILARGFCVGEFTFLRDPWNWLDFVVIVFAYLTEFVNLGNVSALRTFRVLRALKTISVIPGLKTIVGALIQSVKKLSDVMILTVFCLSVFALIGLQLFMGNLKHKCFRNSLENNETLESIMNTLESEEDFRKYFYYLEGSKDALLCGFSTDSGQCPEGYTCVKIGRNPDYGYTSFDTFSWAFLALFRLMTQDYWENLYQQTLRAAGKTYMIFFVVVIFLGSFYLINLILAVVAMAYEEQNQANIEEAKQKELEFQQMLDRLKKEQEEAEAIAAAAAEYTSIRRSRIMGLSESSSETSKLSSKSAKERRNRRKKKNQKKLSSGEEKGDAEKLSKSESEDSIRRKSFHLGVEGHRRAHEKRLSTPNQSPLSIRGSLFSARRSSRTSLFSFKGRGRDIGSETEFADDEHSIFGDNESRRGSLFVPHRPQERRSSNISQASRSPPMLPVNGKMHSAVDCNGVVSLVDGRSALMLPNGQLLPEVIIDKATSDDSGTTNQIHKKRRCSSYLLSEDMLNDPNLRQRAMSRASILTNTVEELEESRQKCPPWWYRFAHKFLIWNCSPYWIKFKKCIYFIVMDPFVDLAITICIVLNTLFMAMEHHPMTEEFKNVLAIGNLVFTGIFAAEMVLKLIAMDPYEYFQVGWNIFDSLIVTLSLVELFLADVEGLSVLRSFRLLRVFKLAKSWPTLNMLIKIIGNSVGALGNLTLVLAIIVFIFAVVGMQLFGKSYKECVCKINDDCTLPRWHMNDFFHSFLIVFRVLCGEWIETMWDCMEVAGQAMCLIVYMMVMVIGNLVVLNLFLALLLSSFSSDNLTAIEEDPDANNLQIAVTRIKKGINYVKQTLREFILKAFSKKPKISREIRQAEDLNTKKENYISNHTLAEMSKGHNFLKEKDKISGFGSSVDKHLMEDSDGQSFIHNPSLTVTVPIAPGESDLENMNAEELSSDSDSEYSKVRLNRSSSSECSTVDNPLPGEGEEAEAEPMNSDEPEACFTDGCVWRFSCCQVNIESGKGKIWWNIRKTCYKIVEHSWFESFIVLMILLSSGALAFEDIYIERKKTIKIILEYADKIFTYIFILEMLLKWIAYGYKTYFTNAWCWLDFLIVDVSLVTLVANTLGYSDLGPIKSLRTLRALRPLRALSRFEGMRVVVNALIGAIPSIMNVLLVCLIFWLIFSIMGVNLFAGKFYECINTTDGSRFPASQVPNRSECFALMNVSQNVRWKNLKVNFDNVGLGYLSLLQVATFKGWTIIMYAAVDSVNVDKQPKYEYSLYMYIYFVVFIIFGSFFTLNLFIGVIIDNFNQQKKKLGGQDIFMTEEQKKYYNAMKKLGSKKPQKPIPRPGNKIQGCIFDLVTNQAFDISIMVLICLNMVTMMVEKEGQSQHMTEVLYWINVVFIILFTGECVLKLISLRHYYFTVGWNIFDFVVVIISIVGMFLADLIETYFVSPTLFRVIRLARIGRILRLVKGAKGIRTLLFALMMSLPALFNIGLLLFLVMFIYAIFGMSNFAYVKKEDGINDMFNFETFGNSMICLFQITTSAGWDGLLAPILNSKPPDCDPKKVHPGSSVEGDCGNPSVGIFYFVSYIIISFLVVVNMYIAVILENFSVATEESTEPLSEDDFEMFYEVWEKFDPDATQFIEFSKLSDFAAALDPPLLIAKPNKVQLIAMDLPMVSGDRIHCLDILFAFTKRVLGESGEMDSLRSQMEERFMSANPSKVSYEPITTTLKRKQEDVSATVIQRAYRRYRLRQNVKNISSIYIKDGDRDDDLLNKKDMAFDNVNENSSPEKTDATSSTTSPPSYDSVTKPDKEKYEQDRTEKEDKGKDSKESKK

| Compound | IC50 (Nav1.7 [1]; [3]) | IC50 (Nav1.7 [1]; [4]) [nM] | activity against Nav1.8 (human Nav1.8 channels) | Ki (Nav1.7 [2]) [nM] | IC50 (human Nav1.5 channels) [nM] | IC50 (human Nav1.8 channels; FRET, HEK293 cells expressing human Nav1.8, read-out: IC50 against Nav1.8) [nM] |
| --- | --- | --- | --- | --- | --- | --- |
| CC(C)C(=O)Nc1cc(C(=O)NCCOc2ncc(C(F)(F)F)cc2Cl)ccn1 [Example 13] | 370 nM and < 500 nM | 370 | good activity |  |  |  |
| CC(=O)Nc1cc(C(=O)NCCNc2ncc(C(F)(F)F)cc2Cl)cc(C)n1 [Example 4] | < 500 nM |  |  | 520 |  |  |
| Cc1cc(C(=O)NCCOc2ncc(C(F)(F)F)cc2Cl)cc(NC(=O)C(C)C)n1 [Example 35] | 190 nM and < 500 nM | 190 | good activity |  |  |  |
| CCC(=O)Nc1cc(C(=O)NCCNc2ncc(C(F)(F)F)cc2Cl)ccn1 [Example 3] | < 500 nM |  |  | 960 |  |  |
| CC(CNC(=O)c1ccnc(NC(=O)C2CC2)c1)Oc1ccc(C(F)(F)F)cc1 (stereo not drawn) [Example 1, 2-(cyclopropanecarboxamido)-N-(2-(4-(trifluoromethyl)phenoxy)propyl)isonicotinamide] |  |  |  |  | > 30000 | 650 |
